According to patent US9012458B2, “Antitumor agent using compounds having kinase inhibitory effect in combination” (Eisai R&D Management Co., Ltd., priority 2010, dated 2015):
Where a name gives a salt, the structure may show the parent alone.

Columns and labels:
Type in all cases: in vivo
[1] = system: human gastric cancer cell line (IM95m); assay: Combined effect in model animal transplanted with human gastric cancer cell line (IM95m); details: IM95m s.c. in nude mouse, Compound A 10 mg/kg, Compound B 100 mg/kg, oral once daily, average ± standard deviation
Procedure: The human gastric cancer cell line IM95m (Health Science Research Resources Bank) was cultured using a DMEM medium (Wako Pure Chemical Industries, Ltd) containing […] glucose, 10% FBS, and 10 μg/mL insulin in a 5% CO2 incubator under the condition of 37° C. When the cells reached a state of approximately 80% confluency, the cells were collected using trypsin-EDTA. To these cells, a Hanks' Balanced Salt Solution containing 50% Matrigel was added to prepare a suspension at 1.0×10^8 cells/mL. The cell suspension thus obtained was subcutaneously transplanted at the lateral side of the body of a nude mouse (CAnN.Cg-Foxn1nu/CrlCrlj, Charles River Laboratories Japan, Inc.) in an amount of 0.1 mL, where each group contained six mice. From 13 days after the transplantation, Compound A (10 mg/kg, once daily, for 21 days) and Compound B (100 mg/kg, once daily, for 21 days) were orally administered continuously, either individually or both in a row.
Setting the initial day of administration at Day 0, the major axis and the minor axis of a tumor developed in each mouse were measured using Digimatic caliper (Mitsutoyo Corporation) thereafter on Day 4, 7, 11, 14, 18 and 21.
(§1) The tumor volume and the relative tumor volume were calculated according to the equations below. TV=major axis (mm)×minor axis^2 (mm^2)/2 RTV=TV on the day of measurement/TV on the initial day of administration

[2] = system: human glioblastoma cell line (U87MG); assay: Combined effect in model animal transplanted with human glioblastoma cell line (U87MG); details: U87MG s.c. in nude mouse, Compound A 10 mg/kg, Compound B 100 mg/kg, oral once daily, average ± standard deviation
Procedure: The human glioblastoma cell line (U87MG) (ATCC) was cultured using a 10% FBS-containing E-MEM medium (SIGMA) in a 5% CO2 incubator under the condition of 37° C. When the cells reached a state of approximately 80% confluency, the cells were collected using trypsin-EDTA. To these cells, a Hanks' Balanced Salt Solution containing 50% Matrigel was added to prepare a suspension at a concentration of 5.0×10^7 cells/mL. The cell suspension thus obtained was subcutaneously transplanted at the lateral side of the body of a nude mouse (CAnN.Cg-FOXn1nu/CrlCrlj, Charles River Laboratories Japan, Inc.) in an amount of 0.1 mL, where each group contained six mice. Compound A (10 mg/kg, once daily, for 21 days) and Compound B (100 mg/kg, once daily, for 21 days) were orally administered, either individually or both in a row.
Setting the initial day of administration at Day 0, the major axis and the minor axis of a tumor developed in each mouse were measured using Digimatic caliper (Mitsutoyo Corporation) thereafter on Day 2, 5, 7, 9, 12, 14, 16, 19, and 21.
as §1

[3] = system: human malignant melanoma cell line (SEKI); assay: Combined effect in model animal transplanted with human malignant melanoma cell line (SEKI); details: SEKI s.c. in nude mouse, Compound A 10 mg/kg, Compound B 100 mg/kg, oral once daily, average ± standard deviation
Procedure: (§2) The human malignant melanoma cell line SEKI (JCRB Cell bank) was cultured using a 10% FBS-containing RPM 1640 medium (SIGMA) in a 5% CO2 incubator under the condition of 37° C. When the cells reached a state of approximately 80% confluency, the cells were collected using trypsin-EDTA. To these cells, a Hanks' Balanced Salt Solution containing 50% Matrigel was added to prepare a suspension at 5.0×10^7 cells/mL. The cell suspension thus obtained was subcutaneously transplanted at the lateral side of the body of a nude mouse (CAnN.Cg-Foxn1nu/CrlCrlj, Charles River Laboratories Japan, Inc.) in an amount of 0.1 mL, where each group contained six mice. From 11 days after the transplantation, Compound A (10 mg/kg, once daily, for 17 days) and Compound B (100 mg/kg, once daily, for 17 days) were orally administered, either individually or both in a row.
(§3) Setting the initial day of administration at Day 0, the major axis and the minor axis of a tumor developed in each mouse were measured using Digimatic caliper (Mitsutoyo Corporation) thereafter on Day 3, 7, 10, 14, and 17.
as §1

[4] = system: human pancreatic cancer cell line (KP-4); assay: Combined effect in model animal transplanted with human pancreatic cancer cell line (KP-4); details: KP-4 s.c. in nude mouse, Compound A 10 mg/kg, Compound B 100 mg/kg, oral once daily, average ± standard deviation
Procedure: as §2, with “pancreatic cancer” for “malignant melanoma”, “KP-4 (acquired from National Hospital Organization Kyushu Cancer Center)” for “SEKI (JCRB Cell bank)”, “RPMI” for “RPM”
as §3, §1

Structure (SMILES)	RTV (relative tumor volume) Day 4 [1]	RTV (relative tumor volume) Day 7 [1]	RTV (relative tumor volume) Day 11 [1]	RTV (relative tumor volume) Day 14 [1]	RTV (relative tumor volume) Day 18 [1]	RTV (relative tumor volume) Day 21 [1]	RTV (relative tumor volume) Day 2 [2]	RTV (relative tumor volume) Day 5 [2]	RTV (relative tumor volume) Day 7 [2]	RTV (relative tumor volume) Day 9 [2]	RTV (relative tumor volume) Day 12 [2]	RTV (relative tumor volume) Day 14 [2]	RTV (relative tumor volume) Day 16 [2]	RTV (relative tumor volume) Day 19 [2]	RTV (relative tumor volume) Day 21 [2]	RTV (relative tumor volume) Day 3 [3]	RTV (relative tumor volume) Day 7 [3]	RTV (relative tumor volume) Day 10 [3]	RTV (relative tumor volume) Day 14 [3]	RTV (relative tumor volume) Day 17 [3]	other results
COc1cc2nccc(Oc3ccc(NC(=O)NC4CC4)c(Cl)c3)c2cc1C(N)=O [Compound A, 4-(3-chloro-4-(cyclopropylaminocarbonyl)aminophenoxy)-7-methoxy-6-quinolinecarboxamide mesylate]	1.53 ± 0.12	2.10 ± 0.18	2.65 ± 0.37	2.65 ± 0.49	2.80 ± 0.47	3.18 ± 0.57	0.95 ± 0.08	1.27 ± 0.07	1.59 ± 0.16	1.85 ± 0.13	3.29 ± 0.32	4.76 ± 0.49	6.19 ± 0.95	9.60 ± 1.99	11.53 ± 2.57	1.71 ± 0.19	2.88 ± 0.35	3.74 ± 0.53	5.06 ± 0.49	5.92 ± 0.50	RTV (relative tumor volume) Day 3 [4]: 1.67 ± 0.16; RTV (relative tumor volume) Day 7 [4]: 2.89 ± 0.74; RTV (relative tumor volume) Day 10 [4]: 3.77 ± 1.26; RTV (relative tumor volume) Day 14 [4]: 4.83 ± 1.75; RTV (relative tumor volume) Day 17 [4]: 5.81 ± 2.17
CN1CCN(C2CCN(C(=O)Nc3cc(Oc4ccc(NC(=O)C5(C(=O)Nc6ccc(F)cc6)CC5)c(F)c4)ccn3)CC2)CC1 [Compound B, N-(2-fluoro-4-{[2-({[4-(4-methylpiperazin-1-yl)piperidin-1-yl]carbonyl}amino)pyridin-4-yl]oxy}phenyl)-N′-(4-fluorophenyl)cyclopropane-1,1-dicarboxamide tartrate]	1.12 ± 0.08	1.24 ± 0.15	1.75 ± 0.17	1.85 ± 0.16	3.09 ± 0.48	4.02 ± 1.05	0.69 ± 0.05	0.61 ± 0.05	0.56 ± 0.10	0.57 ± 0.07	0.65 ± 0.08	0.73 ± 0.12	0.93 ± 0.13	1.65 ± 0.37	2.23 ± 0.51	1.76 ± 0.22	2.93 ± 0.57	4.06 ± 0.85	5.23 ± 0.20	5.80 ± 1.35	RTV (relative tumor volume) Day 3 [4]: 1.71 ± 0.26; RTV (relative tumor volume) Day 7 [4]: 3.33 ± 1.06; RTV (relative tumor volume) Day 10 [4]: 4.72 ± 1.55; RTV (relative tumor volume) Day 14 [4]: 6.53 ± 2.19; RTV (relative tumor volume) Day 17 [4]: 9.05 ± 3.71
